Test results from ChEMBL document CHEMBL1201862, “PubChem BioAssay data set” (2004).
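Each compound was tested at five concentrations against cells in 96-well plates for 48 hours. GI50 = concentration required for 50% inhibition of growth.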 Activity calls are given as the source filed them. Cut-off read from the data, not from the text of the source: active = GI50 up to about 1.1 µM and inactive = higher.

Experiments:
Assay in all cases: DTP human tumour cell line panel, 48 h
786-0 = system: 786-0
A498 = system: A498
A549 = system: A549
ACHN = system: ACHN
CAKI-1 = system: CAKI-1
CCRF-CEM = system: CCRF-CEM
COLO 205 = system: COLO 205
DLD-1 = system: DLD-1
DMS-114 = system: DMS-114
DMS-273 = system: DMS-273
EKVX = system: EKVX
HCC 2998 = system: HCC 2998
HCT-116 = system: HCT-116
HCT-15 = system: HCT-15
HL-60 = system: HL-60
HOP-18 = system: HOP-18
HOP-62 = system: HOP-62
HOP-92 = system: HOP-92
HT-29 = system: HT-29
IGROV-1 = system: IGROV-1
K562 = system: K562
KM-20L2 = system: KM-20L2
KM12 = system: KM12
LOX IMVI = system: LOX IMVI
LXFL 529 = system: LXFL 529
M14 = system: M14
MOLT-4 = system: MOLT-4
Malme-3M = system: Malme-3M
NCI-H226 = system: NCI-H226
NCI-H23 = system: NCI-H23
NCI-H460 = system: NCI-H460
NCI-H522 = system: NCI-H522
OVCAR-3 = system: OVCAR-3
OVCAR-4 = system: OVCAR-4
OVCAR-5 = system: OVCAR-5
OVCAR-8 = system: OVCAR-8
RXF 393 = system: RXF 393
RXF 631 = system: RXF 631
SF-268 = system: SF-268
SF-295 = system: SF-295
SF-539 = system: SF-539
SK-MEL-28 = system: SK-MEL-28
SK-MEL-2 = system: SK-MEL-2
SK-MEL-5 = system: SK-MEL-5
SN12C = system: SN12C
SNB-19 = system: SNB-19
SNB-75 = system: SNB-75
SNB-78 = system: SNB-78
SR = system: SR
SW-620 = system: SW-620
TK-10 = system: TK-10
U-251 = system: U-251
UACC-257 = system: UACC-257
UACC-62 = system: UACC-62
UO-31 = system: UO-31
XF498 = system: XF498
RPMI-8226 = system: RPMI-8226
SK-OV-3 = system: SK-OV-3
M19-MEL = system: M19-MEL

With `C[Si](C)(C)CN1C(=O)c2ccccc2C1(O)c1ccccc1` (stereo unspecified) the GI50 (786-0) was > 100 µM (inactive), the GI50 (A498) was > 100 µM (inactive) and the GI50 (A549) was 40.4 µM (inactive). For the same compound, the GI50 (ACHN) was 56.1 µM (inactive), the GI50 (CAKI-1) was 46.1 µM (inactive) and the GI50 (CCRF-CEM) was 66.4 µM (inactive). For the same compound, the GI50 (COLO 205) was 92.7 µM (inactive), the GI50 (DLD-1) was > 100 µM (inactive) and the GI50 (DMS-114) was 41.6 µM (inactive). The GI50 (DMS-273) was 56.6 µM (inactive), the GI50 (EKVX) was 91 µM (inactive) and the GI50 (HCC 2998) was > 100 µM (inactive). For the same compound, the GI50 (HCT-116) was 48 µM (inactive), the GI50 (HCT-15) was > 68.4 µM and the GI50 (HL-60) was 40.7 µM (inactive). For the same compound, the GI50 (HOP-18) was > 100 µM (inactive), the GI50 (HOP-62) was > 100 µM (inactive) and the GI50 (HOP-92) was 44.6 µM (inactive). For the same compound, the GI50 (HT-29) was 87.9 µM (inactive), the GI50 (IGROV-1) was 99.5 µM (inactive) and the GI50 (K562) was 40.1 µM (inactive). The GI50 (KM-20L2) was > 100 µM (inactive), the GI50 (KM12) was 59.7 µM (inactive) and the GI50 (LOX IMVI) was 49.4 µM (inactive). The GI50 (LXFL 529) was 93.1 µM (inactive), the GI50 (M14) was > 100 µM (inactive) and the GI50 (MOLT-4) was 24.2 µM (inactive). The GI50 (Malme-3M) was > 100 µM (inactive), the GI50 (NCI-H226) was > 100 µM (inactive) and the GI50 (NCI-H23) was 50.6 µM (inactive). For the same compound, the GI50 (NCI-H460) was 65.6 µM (inactive), the GI50 (NCI-H522) was 33.5 µM (inactive) and the GI50 (OVCAR-3) was > 86.3 µM (inactive). The GI50 (OVCAR-4) was 70.6 µM (inactive), the GI50 (OVCAR-5) was > 100 µM (inactive) and the GI50 (OVCAR-8) was > 100 µM (inactive). For the same compound, the GI50 (RXF 393) was 75.2 µM (inactive), the GI50 (RXF 631) was 88.9 µM (inactive) and the GI50 (SF-268) was 98.4 µM (inactive). For the same compound, the GI50 (SF-295) was 64.4 µM (inactive), the GI50 (SF-539) was > 100 µM (inactive) and the GI50 (SK-MEL-28) was > 100 µM (inactive). The GI50 (SK-MEL-2) was 97.1 µM (inactive), the GI50 (SK-MEL-5) was 46.6 µM (inactive) and the GI50 (SN12C) was > 89.3 µM (inactive). For the same compound, the GI50 (SNB-19) was > 100 µM (inactive), the GI50 (SNB-75) was 84.7 µM (inactive) and the GI50 (SNB-78) was > 83.9 µM (inactive). For the same compound, the GI50 (SR) was 83.6 µM (inactive), the GI50 (SW-620) was > 100 µM (inactive) and the GI50 (TK-10) was > 100 µM (inactive). The GI50 (U-251) was > 100 µM (inactive), the GI50 (UACC-257) was 57.3 µM (inactive) and the GI50 (UACC-62) was 62.7 µM (inactive). For the same compound, the GI50 (UO-31) was 30.5 µM (inactive) and the GI50 (XF498) was 73.8 µM (inactive).

`O=[N+]([O-])C1C2C=CC(C2)[C@H]1c1ccccc1Cl` (stereo partly specified) was tested, and the GI50 (786-0) was > 100 µM (inactive), the GI50 (A498) was > 89.9 µM (inactive) and the GI50 (A549) was > 84.5 µM (inactive). For the same compound, the GI50 (ACHN) was > 83.6 µM (inactive), the GI50 (CAKI-1) was > 10 µM (inactive) and the GI50 (CCRF-CEM) was 87.5 µM (inactive). For the same compound, the GI50 (COLO 205) was > 100 µM (inactive), the GI50 (DLD-1) was 83.6 µM (inactive) and the GI50 (DMS-273) was > 100 µM (inactive). For the same compound, the GI50 (EKVX) was > 100 µM (inactive), the GI50 (HCC 2998) was > 100 µM (inactive) and the GI50 (HCT-116) was > 89.9 µM (inactive). The GI50 (HCT-15) was > 96.6 µM, the GI50 (HL-60) was 29.9 µM (inactive) and the GI50 (HOP-18) was > 100 µM (inactive). For the same compound, the GI50 (HOP-62) was > 10 µM (inactive), the GI50 (HOP-92) was 24 µM (inactive) and the GI50 (HT-29) was 99.8 µM (inactive). For the same compound, the GI50 (IGROV-1) was > 31.6 µM (inactive), the GI50 (K562) was 59.4 µM (inactive) and the GI50 (KM-20L2) was > 100 µM (inactive). The GI50 (KM12) was > 100 µM (inactive), the GI50 (LOX IMVI) was > 100 µM (inactive) and the GI50 (LXFL 529) was 75 µM (inactive). The GI50 (M14) was > 100 µM (inactive), the GI50 (MOLT-4) was 57 µM (inactive) and the GI50 (Malme-3M) was 99.1 µM (inactive). For the same compound, the GI50 (NCI-H226) was 15.8 µM (inactive), the GI50 (NCI-H23) was 63.4 µM (inactive) and the GI50 (NCI-H460) was > 100 µM (inactive). The GI50 (NCI-H522) was 23.8 µM (inactive), the GI50 (OVCAR-3) was 22 µM (inactive) and the GI50 (OVCAR-4) was > 10 µM (inactive). The GI50 (OVCAR-5) was 16.5 µM (inactive), the GI50 (OVCAR-8) was > 100 µM (inactive) and the GI50 (RPMI-8226) was > 69.8 µM (inactive). For the same compound, the GI50 (RXF 393) was 45.8 µM (inactive), the GI50 (RXF 631) was 76.2 µM (inactive) and the GI50 (SF-268) was > 100 µM (inactive). The GI50 (SF-295) was > 100 µM (inactive), the GI50 (SF-539) was > 100 µM (inactive) and the GI50 (SK-MEL-28) was > 68.7 µM (inactive). For the same compound, the GI50 (SK-MEL-2) was > 77.8 µM (inactive), the GI50 (SK-MEL-5) was 53.5 µM (inactive) and the GI50 (SK-OV-3) was > 31.6 µM (inactive). The GI50 (SN12C) was > 100 µM (inactive), the GI50 (SNB-19) was > 100 µM (inactive) and the GI50 (SNB-75) was 20.5 µM (inactive). For the same compound, the GI50 (SNB-78) was > 100 µM (inactive), the GI50 (SR) was 47.9 µM (inactive) and the GI50 (SW-620) was > 100 µM (inactive). The GI50 (TK-10) was > 100 µM (inactive), the GI50 (U-251) was > 87.9 µM (inactive) and the GI50 (UACC-257) was 67 µM (inactive). The GI50 (UACC-62) was 27.5 µM (inactive), the GI50 (UO-31) was > 54 µM (inactive) and the GI50 (XF498) was > 77.1 µM (inactive).

`COC(=O)C1=CC2C(=O)OC1C1C(=O)NC(=O)C21` (stereo unspecified) was tested, and the GI50 (786-0) was > 100 µM (inactive), the GI50 (A498) was > 100 µM (inactive) and the GI50 (A549) was > 100 µM (inactive). For the same compound, the GI50 (ACHN) was > 100 µM (inactive), the GI50 (CAKI-1) was > 100 µM (inactive) and the GI50 (CCRF-CEM) was > 100 µM (inactive). The GI50 (COLO 205) was > 100 µM (inactive), the GI50 (DLD-1) was > 100 µM (inactive) and the GI50 (DMS-114) was > 100 µM (inactive). For the same compound, the GI50 (DMS-273) was > 100 µM (inactive), the GI50 (HCC 2998) was > 100 µM (inactive) and the GI50 (HCT-116) was > 100 µM (inactive). The GI50 (HL-60) was > 100 µM (inactive), the GI50 (HOP-18) was > 100 µM (inactive) and the GI50 (HOP-62) was > 100 µM (inactive). For the same compound, the GI50 (HOP-92) was > 100 µM (inactive), the GI50 (HT-29) was > 100 µM (inactive) and the GI50 (IGROV-1) was > 100 µM (inactive). The GI50 (K562) was > 100 µM (inactive), the GI50 (KM-20L2) was > 100 µM (inactive) and the GI50 (KM12) was > 100 µM (inactive). For the same compound, the GI50 (LOX IMVI) was > 100 µM (inactive), the GI50 (LXFL 529) was > 100 µM (inactive) and the GI50 (M14) was > 100 µM (inactive). The GI50 (M19-MEL) was > 100 µM (inactive), the GI50 (MOLT-4) was > 100 µM (inactive) and the GI50 (Malme-3M) was > 100 µM (inactive). The GI50 (NCI-H23) was > 100 µM (inactive), the GI50 (NCI-H460) was > 100 µM (inactive) and the GI50 (NCI-H522) was > 100 µM (inactive). For the same compound, the GI50 (OVCAR-3) was > 100 µM (inactive), the GI50 (OVCAR-4) was 60.4 µM (inactive) and the GI50 (OVCAR-8) was > 100 µM (inactive). For the same compound, the GI50 (RPMI-8226) was > 100 µM (inactive), the GI50 (RXF 631) was > 100 µM (inactive) and the GI50 (SF-268) was > 100 µM (inactive). For the same compound, the GI50 (SF-295) was > 100 µM (inactive), the GI50 (SF-539) was > 100 µM (inactive) and the GI50 (SK-MEL-28) was > 100 µM (inactive). The GI50 (SK-MEL-5) was > 100 µM (inactive), the GI50 (SK-OV-3) was > 100 µM (inactive) and the GI50 (SN12C) was > 100 µM (inactive). The GI50 (SNB-19) was > 100 µM (inactive), the GI50 (SNB-75) was 74.6 µM (inactive) and the GI50 (SNB-78) was > 100 µM (inactive). The GI50 (SR) was > 100 µM (inactive), the GI50 (SW-620) was > 100 µM (inactive) and the GI50 (TK-10) was > 100 µM (inactive). The GI50 (U-251) was > 100 µM (inactive), the GI50 (UACC-257) was > 100 µM (inactive) and the GI50 (UACC-62) was > 100 µM (inactive). The GI50 (UO-31) was > 100 µM (inactive) and the GI50 (XF498) was > 100 µM (inactive).
